Counter-ions that a name gives are not always drawn.
Tests used:
imidazoline I1 receptor = conditions: literature, Ernsberger et al Eur. J. Pharmacol. 134, 1, 1987; cited from earlier work
adrenergic α2 receptor = conditions: literature, Ernsberger et al Eur. J. Pharmacol. 134, 1, 1987; cited from earlier work
NHE2 = NHE2 (Rattus norvegicus, UniProt P48763); conditions: read-out: IC50 for NHE2; literature value, J. Orlowski et al; cited from earlier work
rNHE3 = target: T1, rNHE3 (Rattus norvegicus, UniProt P26433); test: Recovery of intracellular pH (pHi) after acidification, BCECF fluorescence, in fibroblasts (LAP 1 cells); type: cell-based; conditions: pH recovery in LAP 1 fibroblasts
T1 construct: expressed in transfected cells; host or cells: LAP 1 cells (fibroblasts)
T1 sequence (P26433 29-831): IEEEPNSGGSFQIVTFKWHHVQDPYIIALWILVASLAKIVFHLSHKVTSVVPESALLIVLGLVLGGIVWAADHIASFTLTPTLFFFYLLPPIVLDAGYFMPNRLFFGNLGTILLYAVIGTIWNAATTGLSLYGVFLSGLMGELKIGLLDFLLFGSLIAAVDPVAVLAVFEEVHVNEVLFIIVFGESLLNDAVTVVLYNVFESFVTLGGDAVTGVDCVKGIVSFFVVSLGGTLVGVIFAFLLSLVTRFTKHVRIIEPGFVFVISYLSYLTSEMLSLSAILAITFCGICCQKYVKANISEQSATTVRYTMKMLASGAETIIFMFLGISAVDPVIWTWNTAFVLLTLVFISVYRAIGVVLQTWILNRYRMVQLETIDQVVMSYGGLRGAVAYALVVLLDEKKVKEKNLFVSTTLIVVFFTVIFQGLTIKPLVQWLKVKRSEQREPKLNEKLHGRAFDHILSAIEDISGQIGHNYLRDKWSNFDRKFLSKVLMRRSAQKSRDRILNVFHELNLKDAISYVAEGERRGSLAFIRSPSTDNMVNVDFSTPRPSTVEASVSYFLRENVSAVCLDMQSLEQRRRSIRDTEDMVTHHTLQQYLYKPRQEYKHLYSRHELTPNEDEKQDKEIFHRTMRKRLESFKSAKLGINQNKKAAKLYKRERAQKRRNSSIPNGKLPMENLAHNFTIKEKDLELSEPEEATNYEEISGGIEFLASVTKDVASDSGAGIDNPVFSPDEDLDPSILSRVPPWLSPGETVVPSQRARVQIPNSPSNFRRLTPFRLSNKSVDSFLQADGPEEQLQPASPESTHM
Procedure: In this test, the recovery in the intracellular pH (pHi) after an acidification was ascertained, which is initiated if the NHE3 is capable of functioning, even under bicarbonate-free conditions. For this purpose, the pHi was determined using the pH-sensitive fluorescent dye BCECF (Calbiochem, the precursor BCECF-AM is employed). The cells (fibroblasts, LAP 1 cells) were initially loaded with BCECF. The BCECF fluorescence was determined in a “Ratio Fluorescence Spectrometer” (Photon Technology International, South Brunswick, N.J., USA) at excitation wavelengths of 505 and 440 nm and an emission wavelength of 535 nm and converted into the pHi using calibration curves. The cells were incubated in NH4Cl buffer (pH 7.4) (NH4Cl buffer: 115 mM NaCl, 20 mM NH4Cl, 5 mM KCl, 1 mM CaCl2, 1 mM MgSO4, 20 mM Hepes, 5 mM glucose, 1 mg/ml BSA; a pH of 7.4 is adjusted with 1 M NaOH) even during the BCECF loading. The intracellular acidification was induced by adding 975 μl of an NH4Cl-free buffer (see below) to 25 μl aliquots of the cells incubated in NH4Cl buffer. The subsequent rate of pH recovery was recorded for three minutes. To calculate the inhibitory potency of the tested substances, the cells were initially investigated in buffers with which a complete or absolutely no pH recovery took place. For complete pH recovery (100%), the cells were incubated in Na^+-containing buffer (133.8 mM NaCl, 4.7 mM KCl, 1.25 mM CaCl2, 1.25 mM MgCl2, 0.97 mM Na2HPO4, 0.23 mM NaH2PO4, 5 mM Hepes, 5 mM glucose, a pH of 7.0 is adjusted with 1 M NaOH). To determine the 0% value, the cells were incubated in an Na^+-free buffer (133.8 mM choline chloride, 4.7 mM KCl, 1.25 mM CaCl2, 1.25 mM MgCl2, 0.97 mM K2HPO4, 0.23 mM KH2PO4, 5 mM Hepes, 5 mM glucose, a pH of 7.0 is adjusted with 1 M KOH). The substances to be tested were made up in the Na^+-containing buffer. The recovery of the intracellular pH at each test concentration of a substance was expressed as a percentage of the maximum recovery. The IC50 value for the particular substance for the individual NHE subtypes was calculated from the pH recovery percentages using the Sigma-Plot program.

NHE3 = NHE3 (Oryctolagus cuniculus, UniProt P26432); conditions: literature, M. Donowitz et al. Am. J. Physiol. 276; cited from earlier work
Chain of NHE3 (P26432 30-832): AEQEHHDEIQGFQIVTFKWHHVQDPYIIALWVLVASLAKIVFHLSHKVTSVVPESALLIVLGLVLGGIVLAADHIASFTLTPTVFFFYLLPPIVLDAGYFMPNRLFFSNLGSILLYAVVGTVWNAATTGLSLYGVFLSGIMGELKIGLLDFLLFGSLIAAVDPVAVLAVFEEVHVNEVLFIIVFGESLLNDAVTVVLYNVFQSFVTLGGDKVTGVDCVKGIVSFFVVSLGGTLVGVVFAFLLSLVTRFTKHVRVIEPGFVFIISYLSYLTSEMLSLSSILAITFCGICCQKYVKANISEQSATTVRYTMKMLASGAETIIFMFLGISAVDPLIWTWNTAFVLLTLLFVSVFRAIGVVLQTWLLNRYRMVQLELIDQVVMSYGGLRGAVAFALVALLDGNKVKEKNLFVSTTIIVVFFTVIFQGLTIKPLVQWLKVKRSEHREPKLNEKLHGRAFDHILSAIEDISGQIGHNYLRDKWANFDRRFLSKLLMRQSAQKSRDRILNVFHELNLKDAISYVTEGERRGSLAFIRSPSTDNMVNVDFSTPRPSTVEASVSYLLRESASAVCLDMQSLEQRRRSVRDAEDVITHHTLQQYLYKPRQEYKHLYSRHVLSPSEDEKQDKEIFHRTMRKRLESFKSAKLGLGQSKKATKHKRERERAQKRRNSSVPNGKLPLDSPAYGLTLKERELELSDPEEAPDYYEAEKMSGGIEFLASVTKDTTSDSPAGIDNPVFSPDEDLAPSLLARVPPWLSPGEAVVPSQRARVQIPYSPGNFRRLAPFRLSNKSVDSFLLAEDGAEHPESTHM

Chain of NHE2 (P48763 whole entry): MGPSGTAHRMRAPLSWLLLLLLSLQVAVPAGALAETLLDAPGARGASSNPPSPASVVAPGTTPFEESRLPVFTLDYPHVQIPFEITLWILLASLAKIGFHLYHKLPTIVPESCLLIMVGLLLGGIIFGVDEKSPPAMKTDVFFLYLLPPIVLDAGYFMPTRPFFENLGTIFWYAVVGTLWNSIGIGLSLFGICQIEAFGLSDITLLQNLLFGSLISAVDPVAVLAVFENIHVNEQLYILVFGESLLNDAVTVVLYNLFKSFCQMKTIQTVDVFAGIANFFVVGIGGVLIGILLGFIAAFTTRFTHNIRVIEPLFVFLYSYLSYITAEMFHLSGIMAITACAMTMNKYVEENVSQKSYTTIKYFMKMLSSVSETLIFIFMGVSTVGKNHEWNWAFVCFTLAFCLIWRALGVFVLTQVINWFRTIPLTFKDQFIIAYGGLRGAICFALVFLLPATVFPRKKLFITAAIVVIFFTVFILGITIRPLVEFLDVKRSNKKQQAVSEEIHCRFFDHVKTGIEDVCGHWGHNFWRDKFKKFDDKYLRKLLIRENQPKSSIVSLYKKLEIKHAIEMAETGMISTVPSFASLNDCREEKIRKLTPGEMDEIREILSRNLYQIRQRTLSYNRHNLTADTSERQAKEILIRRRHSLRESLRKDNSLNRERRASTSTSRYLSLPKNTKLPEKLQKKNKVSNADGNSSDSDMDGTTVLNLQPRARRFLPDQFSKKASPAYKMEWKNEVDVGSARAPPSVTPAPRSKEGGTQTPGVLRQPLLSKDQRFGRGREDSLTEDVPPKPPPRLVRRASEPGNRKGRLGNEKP

Row | SMILES | IC50 (rNHE3) | further results
1 | Clc1cccc(Cl)c1N=C1NCCN1 [Clonidine] | – | affinity for the imidazoline I1 receptor (imidazoline I1 receptor): high affinity; affinity for the adrenergic α2 receptor (adrenergic α2 receptor): high affinity; IC50 (NHE2): 42 µM
2 | Clc1cccc(Cl)c1Nc1nc2c([nH]1)CCCC2 [Example 5, (2,6-Dichlorophenyl)(4,5,6,7-tetrahydro-1H-benzoimidazol-2-yl)amine hydrochloride] | 0.24 µM | –
3 | N#Cc1nc(Nc2c(Cl)cccc2Cl)[nH]c1C#N [Example 6, 2-(2,6-Dichlorophenylamino)-1H-imidazole-4,5-dicarbonitrile] | 98 µM | –
4 | CN(c1nc2c([nH]1)CCCC2)c1c(Cl)cccc1Cl [Example 7, hydrochloride] | 0.28 µM | –
5 | CC(C)[C@@H](CC[C@@H](C)[C@H]1CC[C@H]2[C@@H]3[C@H](O)C[C@H]4C[C@@H](NCCCNCCCCN)CC[C@]4(C)[C@H]3CC[C@]12C)OS(=O)(=O)O [Squalamine] | – | time to maximum strength of NHE3-inhibiting effect (NHE3): only after one hour

Second part, led by results:

Row | IC50 (rNHE3) | SMILES | further results
6 | 7.7 µM | Clc1cccc(Cl)c1Nc1ncc[nH]1 [Example 1, (2,6-Dichlorophenyl)(1H-imidazol-2-yl)amine hydrochloride] | –
7 | 1.7 µM | Cc1c[nH]c(Nc2c(Cl)cccc2Cl)n1 [Example 2, (2,6-Dichlorophenyl)(4-methyl-1H-imidazol-2-yl)amine hydrochloride] | –
8 | 0.84 µM | Cc1nc(Nc2c(Cl)cccc2Cl)[nH]c1C [Example 3, (2,6-Dichlorophenyl)(4,5-dimethyl-1H-imidazol-2-yl)amine hydrochloride] | –

Source: US7442717B2, “Substituted 2-aminoimidazoles, process for their preparation, their use as medicament or diagnostic aid” (Sanofi-Aventis Deutschland GmbH, priority 2003, dated 2008)
